From patent publication EP0547317A1, “Endothelin antagonists” (TAKEDA CHEMICAL INDUSTRIES, LTD., priority 1991, dated 1993) come the findings set out here.

For this test, the system named is porcine coronary smooth muscles. The test can be described thus: Assay of constrictor suppressing activity on porcine coronary smooth muscles (antagonism of endothelin-1 constriction). The note with it: for pA₂: antagonistic activity on constriction by endothelin-1 given cumulatively about 15 minutes after the compound, negative logarithm of molar concentration of antagonist shifting the dose response curve by a factor of 2; for Relative potency: antagonistic activity on the constriction of porcine coronary smooth muscles, Example 1 = 100. Format: cell-based. Here is the method:
• (1) Assay of Constrictor Suppressing Activity on Porcine Coronary Smooth Muscles Spiral strips 2 mm x 15 mm prepared from the coronary right ramus circumflexus from which the adventitial connective tissues and the endothelial cells were removed were set to 4 ml organ baths. The tension of each strip was detected by a force displacement transducer UL-10GR (Minebea), and recorded by a polygraph (NEC Sanei). The organ baths were maintained at 37°C, and filled with a Krebs-Henseleit solution (composition: 118 mM NaCl, 4.7 mM KCl, 2.5 mM CaCl₂, 1.2 mM KH₂PO₄, 25.0 mM NaHCO₃, 1.2 mM MgSO₄, 10.0 mM glucose) gassed with 95% O₂ and 5% CO₂. A tension of 1.25 to 1.5 g was applied to each of the strips, followed by equilibration for 1.5 hours. 60 mM KCl was repeatedly applied thereto at intervals of 30 minutes until the constriction response became constant. After additional equilibration for 1.5 hours, a sample for assay was given thereto. The constriction of the strips was normalized by the constriction response of the individual strips to 60 mM KCl and statistically processed. The suppressing activity was determined as a pA₂ value by giving endothelin-1 cumulatively about 15 minutes after the compound having a predetermined concentration was given, and comparing the constriction thereof with that of a control sample in which only endothelin-1 was given. […] Such a case has not been reported yet. […] The affinity for the receptor was assayed by the following method.

Bridge positions count the residues as written; N and C are the ends. Square brackets hold non-standard residues; d marks the D form. Peptide text beside a SMILES is read from it. tBuAla = CC(C)(C)C[C@H](N)C(=O)O; Cha = N[C@@H](CC1CCCCC1)C(=O)O; Mpa = O=C(O)CCS

With `CC[C@H](C)[C@H](NC(=O)[C@H](CC(C)C)NC(=O)[C@@H](NC(=O)[C@H](CC(C)C)NC(=O)[C@H](Cc1c[nH]cn1)NC(=O)[C@@H]1CSSC[C@H](N)C(=O)N[C@@H](CO)C(=O)N[C@H]2CSSC[C@H](NC(=O)[C@H](CCC(=O)O)NC(=O)[C@H](CCCCN)NC(=O)[C@H](CC(=O)O)NC(=O)[C@H](CCSC)NC(=O)[C@H](CC(C)C)NC(=O)[C@H](CO)NC(=O)[C@H](CO)NC2=O)C(=O)N[C@@H](C(C)C)C(=O)N[C@@H](Cc2ccc(O)cc2)C(=O)N[C@@H](Cc2ccccc2)C(=O)N1)[C@@H](C)O)C(=O)N[C@@H](Cc1c[nH]c2ccccc12)C(=O)O` [Example 1, [Thr¹⁸, Leu¹⁹]-ET-1] (H-CSCSSLMDKECVYFCHLTLIW-OH; disulfide 1-15, 3-11), the pA₂ was 7.7 and the Relative potency worked out at 100.
As to `CC[C@H](C)[C@H](NC(=O)[C@H](CC1CCCCC1)NC(=O)[C@@H](NC(=O)[C@H](CC(C)C)NC(=O)[C@H](Cc1c[nH]cn1)NC(=O)[C@@H]1CSSC[C@H](N)C(=O)N[C@@H](CO)C(=O)N[C@H]2CSSC[C@H](NC(=O)[C@H](CCC(=O)O)NC(=O)[C@H](CCCCN)NC(=O)[C@H](CC(=O)O)NC(=O)[C@H](CCSC)NC(=O)[C@H](CC(C)C)NC(=O)[C@H](CO)NC(=O)[C@H](CO)NC2=O)C(=O)N[C@@H](C(C)C)C(=O)N[C@@H](Cc2ccc(O)cc2)C(=O)N[C@@H](Cc2ccccc2)C(=O)N1)[C@@H](C)O)C(=O)N[C@@H](Cc1c[nH]c2ccccc12)C(=O)O` [Example 2, [Thr¹⁸, Cha¹⁹]-ET-1] (H-CSCSSLMDKECVYFCHLT[Cha]IW-OH; disulfide 1-15, 3-11), the pA₂ is 7.7 and the Relative potency came out at 100.
With `CC[C@H](C)[C@H](NC(=O)[C@H](Cc1ccccc1)NC(=O)[C@@H](NC(=O)[C@H](CC(C)C)NC(=O)[C@H](Cc1c[nH]cn1)NC(=O)[C@@H]1CSSC[C@H](N)C(=O)N[C@@H](CO)C(=O)N[C@H]2CSSC[C@H](NC(=O)[C@H](CCC(=O)O)NC(=O)[C@H](CCCCN)NC(=O)[C@H](CC(=O)O)NC(=O)[C@H](CCSC)NC(=O)[C@H](CC(C)C)NC(=O)[C@H](CO)NC(=O)[C@H](CO)NC2=O)C(=O)N[C@@H](C(C)C)C(=O)N[C@@H](Cc2ccc(O)cc2)C(=O)N[C@@H](Cc2ccccc2)C(=O)N1)[C@@H](C)O)C(=O)N[C@@H](Cc1c[nH]c2ccccc12)C(=O)O` [Example 3, [Thr¹⁸, Phe¹⁹]-ET-1] (H-CSCSSLMDKECVYFCHLTFIW-OH; disulfide 1-15, 3-11), the pA₂ amounted to 7.2 and the Relative potency is 32.
Take `CC[C@H](C)[C@H](NC(=O)[C@H](CC(C)(C)C)NC(=O)[C@@H](NC(=O)[C@H](CC(C)C)NC(=O)[C@H](Cc1c[nH]cn1)NC(=O)[C@@H]1CSSC[C@H](N)C(=O)N[C@@H](CO)C(=O)N[C@H]2CSSC[C@H](NC(=O)[C@H](CCC(=O)O)NC(=O)[C@H](CCCCN)NC(=O)[C@H](CC(=O)O)NC(=O)[C@H](CCSC)NC(=O)[C@H](CC(C)C)NC(=O)[C@H](CO)NC(=O)[C@H](CO)NC2=O)C(=O)N[C@@H](C(C)C)C(=O)N[C@@H](Cc2ccc(O)cc2)C(=O)N[C@@H](Cc2ccccc2)C(=O)N1)[C@@H](C)O)C(=O)N[C@@H](Cc1c[nH]c2ccccc12)C(=O)O` [Example 4, [Thr¹⁸, γLeu¹⁹]-ET-1] (H-CSCSSLMDKECVYFCHLT[tBuAla]IW-OH; disulfide 1-15, 3-11): the pA₂ is 7.4 and the Relative potency turned out to be 50.
In the same order, the values of `CC[C@H](C)[C@H](NC(=O)[C@H](CC(C)C)NC(=O)[C@H](CO)NC(=O)[C@H](CC(C)C)NC(=O)[C@H](Cc1c[nH]cn1)NC(=O)[C@@H]1CSSC[C@H](N)C(=O)N[C@@H](CO)C(=O)N[C@H]2CSSC[C@H](NC(=O)[C@H](CCC(=O)O)NC(=O)[C@H](CCCCN)NC(=O)[C@H](CC(=O)O)NC(=O)[C@H](CCSC)NC(=O)[C@H](CC(C)C)NC(=O)[C@H](CO)NC(=O)[C@H](CO)NC2=O)C(=O)N[C@@H](C(C)C)C(=O)N[C@@H](Cc2ccc(O)cc2)C(=O)N[C@@H](Cc2ccccc2)C(=O)N1)C(=O)N[C@@H](Cc1c[nH]c2ccccc12)C(=O)O` [Example 6, [Ser¹⁸, Leu¹⁹]-ET-1] (H-CSCSSLMDKECVYFCHLSLIW-OH; disulfide 1-15, 3-11) are 7.5 and 63.
`CC[C@H](C)[C@H](NC(=O)[C@H](CC(C)C)NC(=O)CNC(=O)[C@H](CC(C)C)NC(=O)[C@H](Cc1c[nH]cn1)NC(=O)[C@@H]1CSSC[C@H](N)C(=O)N[C@@H](CO)C(=O)N[C@H]2CSSC[C@H](NC(=O)[C@H](CCC(=O)O)NC(=O)[C@H](CCCCN)NC(=O)[C@H](CC(=O)O)NC(=O)[C@H](CCSC)NC(=O)[C@H](CC(C)C)NC(=O)[C@H](CO)NC(=O)[C@H](CO)NC2=O)C(=O)N[C@@H](C(C)C)C(=O)N[C@@H](Cc2ccc(O)cc2)C(=O)N[C@@H](Cc2ccccc2)C(=O)N1)C(=O)N[C@@H](Cc1c[nH]c2ccccc12)C(=O)O` [Example 8, [Gly¹⁸, Leu¹⁹]-ET-1] (H-CSCSSLMDKECVYFCHLGLIW-OH; disulfide 1-15, 3-11): the pA₂ turned out to be 6.7 and the Relative potency was 10.
The matching figures for `CC[C@H](C)[C@H](NC(=O)[C@H](CC(C)C)NC(=O)[C@@H](NC(=O)[C@H](CC(C)C)NC(=O)[C@H](Cc1c[nH]cn1)NC(=O)[C@@H]1CSSC[C@H](N)C(=O)N[C@@H](CO)C(=O)N[C@H]2CSSC[C@H](NC(=O)[C@H](CCC(=O)O)NC(=O)[C@H](C)NC(=O)[C@H](CC(=O)O)NC(=O)[C@H](CCSC)NC(=O)[C@H](CC(C)C)NC(=O)[C@H](CO)NC(=O)[C@H](CO)NC2=O)C(=O)N[C@@H](C(C)C)C(=O)N[C@@H](Cc2ccc(O)cc2)C(=O)N[C@@H](Cc2ccccc2)C(=O)N1)[C@@H](C)O)C(=O)N[C@@H](Cc1c[nH]c2ccccc12)C(=O)O` [Example 10, [Ala⁹, Thr¹⁸, Leu¹⁹]-ET-1] (H-CSCSSLMDAECVYFCHLTLIW-OH; disulfide 1-15, 3-11): 5.9 and 1.6.
As for `CC[C@H](C)[C@H](NC(=O)[C@H](CC(C)C)NC(=O)[C@@H](NC(=O)[C@H](CC(C)C)NC(=O)[C@H](Cc1c[nH]cn1)NC(=O)[C@@H]1CSSCCC(=O)N[C@@H](CO)C(=O)N[C@H]2CSSC[C@H](NC(=O)[C@H](CCC(=O)O)NC(=O)[C@H](CCCCN)NC(=O)[C@H](CC(=O)O)NC(=O)[C@H](CCSC)NC(=O)[C@H](CC(C)C)NC(=O)[C@H](CO)NC(=O)[C@H](CO)NC2=O)C(=O)N[C@@H](C(C)C)C(=O)N[C@@H](Cc2ccc(O)cc2)C(=O)N[C@@H](Cc2ccccc2)C(=O)N1)[C@@H](C)O)C(=O)N[C@@H](Cc1c[nH]c2ccccc12)C(=O)O` [Example 11, [Mpr¹, Thr¹⁸, Leu¹⁹]-ET-1] ([Mpa]SCSSLMDKECVYFCHLTLIW-OH; disulfide 1-15, 3-11), the pA₂ is 6.5 and the Relative potency is 6.
Consider `CC[C@H](C)[C@H](NC(=O)[C@H](CC(C)C)NC(=O)[C@@H](NC(=O)[C@H](CC(C)C)NC(=O)[C@H](Cc1c[nH]cn1)NC(=O)[C@@H]1CSSC[C@H](N)C(=O)N[C@@H](C)C(=O)N[C@H]2CSSC[C@H](NC(=O)[C@H](CCC(=O)O)NC(=O)[C@H](CCCCN)NC(=O)[C@H](CC(=O)O)NC(=O)[C@H](CCSC)NC(=O)[C@H](CC(C)C)NC(=O)[C@H](CO)NC(=O)[C@H](CO)NC2=O)C(=O)N[C@@H](C(C)C)C(=O)N[C@@H](Cc2ccc(O)cc2)C(=O)N[C@@H](Cc2ccccc2)C(=O)N1)[C@@H](C)O)C(=O)N[C@@H](Cc1c[nH]c2ccccc12)C(=O)O` [Example 12, [Ala², Thr¹⁸, Leu¹⁹]-ET-1] (H-CACSSLMDKECVYFCHLTLIW-OH; disulfide 1-15, 3-11), for which the pA₂ was 6.7 and the Relative potency stood at 10.
Take `CC[C@H](C)[C@H](NC(=O)[C@H](CC(C)C)NC(=O)[C@@H](NC(=O)[C@H](CC(C)C)NC(=O)[C@H](Cc1c[nH]cn1)NC(=O)[C@@H]1CSSC[C@H](N)C(=O)N[C@@H](CO)C(=O)N[C@H]2CSSC[C@H](NC(=O)[C@H](CCC(=O)O)NC(=O)[C@H](CCCCN)NC(=O)[C@H](CC(=O)O)NC(=O)[C@H](CCSC)NC(=O)[C@H](CC(C)C)NC(=O)[C@H](CO)NC(=O)[C@H](C)NC2=O)C(=O)N[C@@H](C(C)C)C(=O)N[C@@H](Cc2ccc(O)cc2)C(=O)N[C@@H](Cc2ccccc2)C(=O)N1)[C@@H](C)O)C(=O)N[C@@H](Cc1c[nH]c2ccccc12)C(=O)O` [Example 13, [Ala⁴, Thr¹⁸, Leu¹⁹]-ET-1] (H-CSCASLMDKECVYFCHLTLIW-OH; disulfide 1-15, 3-11): the pA₂ worked out at 6.9 and the Relative potency worked out at 16.
The matching figures for `CC[C@H](C)[C@H](NC(=O)[C@H](CC(C)C)NC(=O)[C@@H](NC(=O)[C@H](CC(C)C)NC(=O)[C@H](Cc1c[nH]cn1)NC(=O)[C@@H]1CSSC[C@H](N)C(=O)N[C@@H](CO)C(=O)N[C@H]2CSSC[C@H](NC(=O)[C@H](CCC(=O)O)NC(=O)[C@H](CCCCN)NC(=O)[C@H](CC(=O)O)NC(=O)[C@H](CCSC)NC(=O)[C@H](CC(C)C)NC(=O)[C@H](C)NC(=O)[C@H](CO)NC2=O)C(=O)N[C@@H](C(C)C)C(=O)N[C@@H](Cc2ccc(O)cc2)C(=O)N[C@@H](Cc2ccccc2)C(=O)N1)[C@@H](C)O)C(=O)N[C@@H](Cc1c[nH]c2ccccc12)C(=O)O` [Example 14, [Ala⁵, Thr¹⁸, Leu¹⁹]-ET-1] (H-CSCSALMDKECVYFCHLTLIW-OH; disulfide 1-15, 3-11): 5.5 and 0.6.
